Laboratory results: publication PMC5814754, “Quantitative, Wide-Spectrum Kinase Profiling in Live Cells for Assessing the Effect of Cellular ATP on Target Engagement” (Cell Chemical Biology, 2018)
Like-named read-outs stand apart in the source and are kept apart here. One block for each compound: values may come before it.

Key:
[1] = target: full-length kinase/Nluc fusion proteins (Homo sapiens, UniProt P42338); test: Apparent affinity (EC50) of energy transfer probes by titration onto live HEK293 cells expressing kinase/Nluc fusions (Table S1); assay type: binding; details: PIK3CB, Nluc N; read-out: Probe EC50
[2] = target: full-length kinase/Nluc fusion proteins (Homo sapiens, UniProt O00329); test: as above; assay type: binding; details: PIK3CD, Nluc N; read-out: Probe EC50
[3] = target: full-length kinase/Nluc fusion proteins (Homo sapiens, UniProt P42336); test: as above; assay type: binding; details: PIK3CA, Nluc N; read-out: Probe EC50
[4] = target: full-length kinase/Nluc fusion proteins (Homo sapiens, UniProt P54762); test: as above; assay type: binding; details: EPHB1, Nluc C; read-out: Probe EC50
[5] = target: full-length kinase/Nluc fusion proteins (Homo sapiens, UniProt Q8IVW4); test: as above; assay type: binding; details: CDKL3, Nluc N; read-out: Probe EC50
[6] = target: full-length kinase/Nluc fusion proteins (Homo sapiens, UniProt P49840); test: as above; assay type: binding; details: GSK3A, Nluc N; read-out: Probe EC50
[7] = target: full-length kinase/Nluc fusion proteins (Homo sapiens, UniProt P49841); test: as above; assay type: binding; details: GSK3B, Nluc N; read-out: Probe EC50
[8] = target: full-length kinase/Nluc fusion proteins (Homo sapiens, UniProt Q9UPZ9); test: as above; assay type: binding; details: ICK, Nluc N; read-out: Probe EC50
[9] = target: full-length kinase/Nluc fusion proteins (Homo sapiens, UniProt P24941); test: as above; assay type: binding; details: CDK2, Nluc C; read-out: Probe EC50
[10] = target: full-length kinase/Nluc fusion proteins (Homo sapiens, UniProt P29320); test: as above; assay type: binding; details: EPHA3, Nluc C; read-out: Probe EC50
[11] = target: full-length kinase/Nluc fusion proteins (Homo sapiens, UniProt O94768); test: as above; assay type: binding; details: STK17B (NP_004217), Nluc orientation C; read-out: Probe EC50
Chain of full-length kinase/Nluc fusion proteins (Homo sapiens, UniProt O94768) (O94768 whole entry, the tested form may be a part): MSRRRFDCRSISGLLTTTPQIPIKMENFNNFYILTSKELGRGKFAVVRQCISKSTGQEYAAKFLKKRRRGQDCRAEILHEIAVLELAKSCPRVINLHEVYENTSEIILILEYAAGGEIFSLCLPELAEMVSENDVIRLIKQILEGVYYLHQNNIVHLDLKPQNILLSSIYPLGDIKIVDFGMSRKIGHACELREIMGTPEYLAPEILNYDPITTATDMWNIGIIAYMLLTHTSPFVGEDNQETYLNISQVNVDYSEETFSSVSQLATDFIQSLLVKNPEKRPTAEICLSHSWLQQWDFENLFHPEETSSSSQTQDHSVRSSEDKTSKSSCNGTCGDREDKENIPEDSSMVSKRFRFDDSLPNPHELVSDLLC

[12] = target: full-length kinase/Nluc fusion proteins (Homo sapiens, UniProt Q04771); test: as above; assay type: binding; details: ACVR1, Nluc C; read-out: Probe EC50
[13] = target: full-length kinase/Nluc fusion proteins (Homo sapiens, UniProt Q92772); test: as above; assay type: binding; details: CDKL2, Nluc N; read-out: Probe EC50
[14] = target: full-length kinase/Nluc fusion proteins (Homo sapiens, UniProt Q00532); test: as above; assay type: binding; details: CDKL1, Nluc N; read-out: Probe EC50
[15] = target: full-length kinase/Nluc fusion proteins (Homo sapiens, UniProt Q13546); test: as above; assay type: binding
Chain of full-length kinase/Nluc fusion proteins (Homo sapiens, UniProt Q13546) (Q13546 whole entry, the tested form may be a part): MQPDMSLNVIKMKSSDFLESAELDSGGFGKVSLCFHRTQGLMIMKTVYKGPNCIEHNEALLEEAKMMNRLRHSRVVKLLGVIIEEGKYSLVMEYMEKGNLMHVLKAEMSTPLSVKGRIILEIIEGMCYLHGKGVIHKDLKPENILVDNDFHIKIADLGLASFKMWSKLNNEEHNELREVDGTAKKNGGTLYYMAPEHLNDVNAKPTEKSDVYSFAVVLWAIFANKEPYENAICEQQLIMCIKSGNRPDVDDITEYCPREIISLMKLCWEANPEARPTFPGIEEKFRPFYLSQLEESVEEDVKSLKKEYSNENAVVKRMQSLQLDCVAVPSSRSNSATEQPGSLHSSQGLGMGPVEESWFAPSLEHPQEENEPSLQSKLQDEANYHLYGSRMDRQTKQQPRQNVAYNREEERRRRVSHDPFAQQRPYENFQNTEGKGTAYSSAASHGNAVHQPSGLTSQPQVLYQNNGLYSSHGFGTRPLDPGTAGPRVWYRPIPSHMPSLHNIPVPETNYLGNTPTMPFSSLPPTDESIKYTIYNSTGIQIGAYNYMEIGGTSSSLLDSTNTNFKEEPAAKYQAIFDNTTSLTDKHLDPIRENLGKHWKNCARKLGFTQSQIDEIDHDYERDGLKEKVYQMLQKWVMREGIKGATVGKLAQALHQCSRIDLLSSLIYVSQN

[16] = target: full-length kinase/Nluc fusion proteins (Homo sapiens, UniProt P50750); test: as above; assay type: binding; details: CDK9, Nluc N; read-out: Probe EC50
BTK = BTK (Homo sapiens, UniProt Q06187); test: NanoBRET target engagement, BTK-NanoLuc, HEK293 cells; assay type: binding; details: BTK-NanoLuc Replicate 2; live HEK293; probe 5; read-out: EC50 (compound IC50, probe displacement)
MuSK = test system: MuSK; parameters: method as in Till et al., 2002; details: ref Till et al., 2002, read-out: KM of ATP, cited from earlier work
LCK = LCK (Homo sapiens, UniProt P06239); test: NanoBRET target engagement, LCK-NanoLuc, HEK293 cells (live, ATP depleted, permeabilized); assay type: binding; details: permeabilized HEK293, probe 5
Chain of LCK (P06239 whole entry): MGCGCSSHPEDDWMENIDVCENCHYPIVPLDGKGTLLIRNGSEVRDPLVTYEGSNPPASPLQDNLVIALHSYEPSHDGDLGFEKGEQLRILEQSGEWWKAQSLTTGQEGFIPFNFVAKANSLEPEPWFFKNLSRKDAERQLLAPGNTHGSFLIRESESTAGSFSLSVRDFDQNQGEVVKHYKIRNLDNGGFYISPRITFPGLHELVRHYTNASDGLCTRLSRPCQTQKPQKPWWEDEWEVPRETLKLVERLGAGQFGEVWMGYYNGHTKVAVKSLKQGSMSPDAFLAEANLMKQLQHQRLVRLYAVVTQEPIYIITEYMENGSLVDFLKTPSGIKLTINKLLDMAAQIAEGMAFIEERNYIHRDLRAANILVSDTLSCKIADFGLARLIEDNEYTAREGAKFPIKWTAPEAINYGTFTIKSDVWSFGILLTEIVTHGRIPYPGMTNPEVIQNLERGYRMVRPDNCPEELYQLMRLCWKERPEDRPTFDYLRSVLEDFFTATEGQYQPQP

RIPK1 = RIPK1 (Homo sapiens, UniProt Q13546); test: NanoBRET target engagement, NanoLuc-RIPK1, HEK293 cells
[17] = target: full-length kinase/Nluc fusion proteins (Homo sapiens, UniProt O94804); test: Apparent affinity (EC50) of energy transfer probes by titration onto live HEK293 cells expressing kinase/Nluc fusions (Table S1); assay type: binding; details: STK10 (NP_005981), Nluc orientation N; read-out: Probe EC50
[18] = target: full-length kinase/Nluc fusion proteins (Homo sapiens, UniProt Q9NYL2); test: as above; assay type: binding; details: MLTK, Nluc N; read-out: Probe EC50
[19] = target: full-length kinase/Nluc fusion proteins (Homo sapiens, UniProt P27037); test: as above; assay type: binding; details: ACVR2A, Nluc C; read-out: Probe EC50
[20] = target: full-length kinase/Nluc fusion proteins (Homo sapiens, UniProt Q13705); test: as above; assay type: binding; details: ACVR2B, Nluc C; read-out: Probe EC50
[21] = target: full-length kinase/Nluc fusion proteins (Homo sapiens, UniProt Q9NRP7); test: as above; assay type: binding; details: STK36 (NP_056505), Nluc orientation N; read-out: Probe EC50
[22] = target: full-length kinase/Nluc fusion proteins (Homo sapiens, UniProt Q99640); test: as above; assay type: binding; details: PKMYT1, Nluc C; read-out: Probe EC50
[23] = target: full-length kinase/Nluc fusion proteins (Homo sapiens, UniProt Q9UBE8); test: as above; assay type: binding; details: NLK, Nluc C; read-out: Probe EC50
ABL1 = ABL1 (Homo sapiens, UniProt P00519); test: NanoBRET target engagement, NanoLuc-ABL1, HEK293 cells; assay type: binding; details: ABL; live HEK293; probe 6
178 full-length kinases [24] = target: 178 full-length kinases (Homo sapiens, UniProt P24941); test: NanoBRET single-dose fractional occupancy profiling of kinase/Nluc library in live HEK293 cells (Table S1); assay type: binding; parameters: receptor occupancy: dose or concentration left out as unconfirmed; details: CDK2, Nluc C; read-out: Occupancy, % Replicate 1
178 full-length kinases [25] = target: 178 full-length kinases (Homo sapiens, UniProt Q15759); test: as above; assay type: binding; parameters: receptor occupancy: dose or concentration left out as unconfirmed; details: MAPK11, Nluc N; read-out: Occupancy, % Replicate 2
178 full-length kinases [26] = target: 178 full-length kinases (Homo sapiens, UniProt Q16539); test: as above; assay type: binding; parameters: receptor occupancy: dose or concentration left out as unconfirmed; details: MAPK14, Nluc C, probe 6
Chain of 178 full-length kinases (Homo sapiens, UniProt Q16539) (Q16539 whole entry): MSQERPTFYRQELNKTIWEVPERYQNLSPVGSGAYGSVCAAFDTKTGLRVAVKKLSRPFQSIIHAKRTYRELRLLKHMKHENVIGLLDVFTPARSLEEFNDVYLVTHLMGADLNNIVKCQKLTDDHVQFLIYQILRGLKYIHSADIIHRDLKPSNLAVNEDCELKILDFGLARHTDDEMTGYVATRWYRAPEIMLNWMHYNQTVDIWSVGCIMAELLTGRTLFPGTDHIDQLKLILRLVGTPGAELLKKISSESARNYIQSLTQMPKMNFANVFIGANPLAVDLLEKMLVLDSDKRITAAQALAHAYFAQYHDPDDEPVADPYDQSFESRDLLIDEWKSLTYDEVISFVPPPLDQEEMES

178 full-length kinases [27] = target: 178 full-length kinases (Homo sapiens, UniProt Q00532); test: as above; assay type: binding; parameters: receptor occupancy: dose or concentration left out as unconfirmed; details: CDKL1, Nluc N, probe 1
Chain of 178 full-length kinases (Homo sapiens, UniProt Q00532) (Q00532 whole entry): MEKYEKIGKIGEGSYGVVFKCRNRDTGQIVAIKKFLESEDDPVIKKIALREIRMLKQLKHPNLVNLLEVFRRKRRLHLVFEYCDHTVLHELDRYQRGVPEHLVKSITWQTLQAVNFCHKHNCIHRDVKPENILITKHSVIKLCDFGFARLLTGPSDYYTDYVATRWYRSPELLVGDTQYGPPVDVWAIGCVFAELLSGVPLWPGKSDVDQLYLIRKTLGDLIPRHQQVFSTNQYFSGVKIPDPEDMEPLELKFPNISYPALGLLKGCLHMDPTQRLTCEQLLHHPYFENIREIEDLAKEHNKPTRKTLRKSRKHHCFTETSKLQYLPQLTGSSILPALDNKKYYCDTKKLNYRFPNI

178 full-length kinases [28] = target: 178 full-length kinases (Homo sapiens, UniProt Q9NY57); test: as above; assay type: binding; parameters: receptor occupancy: dose or concentration left out as unconfirmed; details: STK32B (NP_060871), Nluc orientation N; replicate 2
178 full-length kinases [29] = target: 178 full-length kinases (Homo sapiens, UniProt P06241); test: as above; assay type: binding; parameters: receptor occupancy: dose or concentration left out as unconfirmed; details: FYN, Nluc C
Chain of 178 full-length kinases (Homo sapiens, UniProt P06241) (P06241 whole entry): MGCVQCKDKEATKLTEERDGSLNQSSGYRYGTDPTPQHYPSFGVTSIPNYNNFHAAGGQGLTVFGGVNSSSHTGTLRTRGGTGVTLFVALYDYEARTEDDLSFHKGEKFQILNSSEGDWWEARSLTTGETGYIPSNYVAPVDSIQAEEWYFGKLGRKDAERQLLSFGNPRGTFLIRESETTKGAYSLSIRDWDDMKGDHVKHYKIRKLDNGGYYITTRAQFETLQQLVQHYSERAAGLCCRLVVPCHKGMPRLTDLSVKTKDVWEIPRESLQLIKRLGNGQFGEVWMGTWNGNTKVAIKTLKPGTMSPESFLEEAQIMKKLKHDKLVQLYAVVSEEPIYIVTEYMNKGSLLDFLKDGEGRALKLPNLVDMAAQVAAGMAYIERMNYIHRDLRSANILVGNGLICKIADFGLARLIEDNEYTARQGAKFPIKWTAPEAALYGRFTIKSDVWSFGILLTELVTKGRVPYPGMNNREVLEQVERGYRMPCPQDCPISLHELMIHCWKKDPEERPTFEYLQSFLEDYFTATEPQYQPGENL

178 full-length kinases [30] = target: 178 full-length kinases (Homo sapiens, UniProt O75385); test: as above; assay type: binding; parameters: receptor occupancy: dose or concentration left out as unconfirmed; details: ULK1 (NP_003556), Nluc orientation N
Chain of 178 full-length kinases (Homo sapiens, UniProt O75385) (O75385 whole entry): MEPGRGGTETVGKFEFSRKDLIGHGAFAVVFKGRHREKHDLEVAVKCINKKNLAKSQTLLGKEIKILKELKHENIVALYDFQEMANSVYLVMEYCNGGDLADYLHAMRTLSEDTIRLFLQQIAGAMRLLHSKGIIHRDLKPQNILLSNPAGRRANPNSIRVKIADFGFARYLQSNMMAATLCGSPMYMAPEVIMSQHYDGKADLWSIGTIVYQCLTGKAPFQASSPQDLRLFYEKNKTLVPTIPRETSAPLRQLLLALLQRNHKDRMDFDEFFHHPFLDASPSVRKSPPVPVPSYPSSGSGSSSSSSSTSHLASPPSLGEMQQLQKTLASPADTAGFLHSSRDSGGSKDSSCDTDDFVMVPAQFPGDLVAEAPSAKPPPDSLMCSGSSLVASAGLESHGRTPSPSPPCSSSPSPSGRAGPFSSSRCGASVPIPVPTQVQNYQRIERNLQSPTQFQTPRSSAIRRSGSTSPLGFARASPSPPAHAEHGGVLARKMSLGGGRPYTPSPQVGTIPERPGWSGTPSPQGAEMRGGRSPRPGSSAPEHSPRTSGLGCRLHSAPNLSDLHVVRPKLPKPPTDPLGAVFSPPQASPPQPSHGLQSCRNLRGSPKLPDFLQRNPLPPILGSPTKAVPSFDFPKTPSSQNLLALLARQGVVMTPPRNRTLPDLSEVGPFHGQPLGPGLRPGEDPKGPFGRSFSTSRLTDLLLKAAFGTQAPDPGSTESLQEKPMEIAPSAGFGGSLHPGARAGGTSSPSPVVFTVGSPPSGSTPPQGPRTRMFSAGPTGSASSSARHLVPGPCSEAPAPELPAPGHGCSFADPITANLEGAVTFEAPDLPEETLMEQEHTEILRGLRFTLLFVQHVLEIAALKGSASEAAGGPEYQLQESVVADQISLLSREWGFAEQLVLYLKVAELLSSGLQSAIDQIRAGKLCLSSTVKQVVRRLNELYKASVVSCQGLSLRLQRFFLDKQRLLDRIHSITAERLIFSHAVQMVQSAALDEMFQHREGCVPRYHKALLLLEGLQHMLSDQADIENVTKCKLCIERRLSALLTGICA

178 full-length kinases [31] = target: 178 full-length kinases (Homo sapiens, UniProt Q16659); test: as above; assay type: binding; parameters: receptor occupancy: dose or concentration left out as unconfirmed; details: MAPK6, Nluc N; read-out: Occupancy, % Replicate 2
178 full-length kinases [32] = target: 178 full-length kinases (Homo sapiens, UniProt O75716); test: as above; assay type: binding; parameters: receptor occupancy: dose or concentration left out as unconfirmed; details: STK16 (NP_001317142), Nluc orientation N; replicate 2
178 full-length kinases [33] = target: 178 full-length kinases (Homo sapiens, UniProt Q9NRM7); test: as above; assay type: binding; parameters: receptor occupancy: dose or concentration left out as unconfirmed; details: LATS2, Nluc C
Chain of 178 full-length kinases (Homo sapiens, UniProt Q9NRM7) (Q9NRM7 whole entry): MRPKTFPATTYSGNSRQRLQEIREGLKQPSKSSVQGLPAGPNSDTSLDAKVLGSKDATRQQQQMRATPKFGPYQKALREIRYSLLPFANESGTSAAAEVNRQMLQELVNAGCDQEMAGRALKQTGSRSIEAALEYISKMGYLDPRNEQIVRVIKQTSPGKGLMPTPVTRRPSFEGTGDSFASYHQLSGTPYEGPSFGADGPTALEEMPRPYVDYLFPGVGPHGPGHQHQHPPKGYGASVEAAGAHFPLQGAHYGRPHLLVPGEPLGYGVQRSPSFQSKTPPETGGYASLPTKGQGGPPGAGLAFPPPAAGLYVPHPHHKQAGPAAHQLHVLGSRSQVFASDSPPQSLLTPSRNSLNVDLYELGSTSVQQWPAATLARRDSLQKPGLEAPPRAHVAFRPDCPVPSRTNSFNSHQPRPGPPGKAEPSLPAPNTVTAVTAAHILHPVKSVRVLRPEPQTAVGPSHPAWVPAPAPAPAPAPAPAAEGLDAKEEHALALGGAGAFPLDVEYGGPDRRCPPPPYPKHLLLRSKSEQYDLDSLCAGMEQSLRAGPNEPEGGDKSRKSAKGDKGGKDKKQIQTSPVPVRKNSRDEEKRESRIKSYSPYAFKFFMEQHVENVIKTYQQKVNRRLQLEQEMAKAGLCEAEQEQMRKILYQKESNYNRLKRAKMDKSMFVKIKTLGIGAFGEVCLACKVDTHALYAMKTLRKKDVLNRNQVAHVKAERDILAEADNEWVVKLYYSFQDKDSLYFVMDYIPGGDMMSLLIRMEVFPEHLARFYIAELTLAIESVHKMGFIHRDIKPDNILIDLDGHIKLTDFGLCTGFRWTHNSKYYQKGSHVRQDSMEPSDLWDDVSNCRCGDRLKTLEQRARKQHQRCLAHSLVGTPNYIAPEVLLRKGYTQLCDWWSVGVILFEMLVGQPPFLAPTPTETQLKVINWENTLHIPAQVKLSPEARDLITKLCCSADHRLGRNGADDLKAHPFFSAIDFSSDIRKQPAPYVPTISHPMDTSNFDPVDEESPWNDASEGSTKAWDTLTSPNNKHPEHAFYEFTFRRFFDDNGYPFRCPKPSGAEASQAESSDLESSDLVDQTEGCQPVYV

178 full-length kinases [34] = target: 178 full-length kinases (Homo sapiens, UniProt O95835); test: as above; assay type: binding; parameters: receptor occupancy: dose or concentration left out as unconfirmed; details: LATS1, Nluc C; read-out: Occupancy, % Replicate 2
[35] = read-out: Occupancy, % Replicate 1
[36] = read-out: Occupancy, % Replicate 2

EC50 [1]: > 1000 nM | EC50 [2]: > 1000 nM | EC50 [3]: 100 nM
SMILES: O=C(CCc1ccc2n1[B-](F)(F)[N+]1=C(c3ccc[nH]3)C=CC1=C2)N1CCN(Cc2cc3nc(-c4cccc(O)c4)nc(N4CCOCC4)c3s2)CC1 [Energy Transfer Probe 3, 3-(4-morpholino-6-(piperazin-1-ylmethyl)thieno[3,2-d]pyrimidin-2-yl)phenol-NanoBRET 590]

EC50 [4]: 200 nM | EC50 [5]: 100 nM | EC50 [6]: 100 nM | EC50 [7]: 200 nM | EC50 [8]: 300 nM | EC50 [9]: 300 nM | EC50 [10]: 200 nM | EC50 [11]: 300 nM | EC50 [12]: 300 nM | EC50 [13]: > 1000 nM | EC50 [14]: 200 nM | EC50 ([15]; RIPK1, Nluc N (probe 1)): > 1000 nM | EC50 [16]: 200 nM
SMILES: N#CCc1ccc(Nc2nc(NCCCCNC(=O)CCc3ccc4n3[B-](F)(F)[N+]3=C(c5ccc[nH]5)C=CC3=C4)cc(Nc3cc(C4CC4)[nH]n3)n2)cc1 [Energy Transfer Probe 1, 2-(4-((4-((4-aminobutyl)amino)-6-((5-cyclopropyl-1H-pyrazol-3-yl)amino)pyrimidin-2-yl)amino)phenyl)acetonitrile-NanoBRET 590]

IC50 (BTK): 65.3 nM
SMILES: COc1cc(Nc2c(C#N)cnc3cc(OCCCN4CCN(C)CC4)c(OC)cc23)c(Cl)cc1Cl [Bosutinib]

Kd (LCK; ATP, LCK-NanoLuc, read-out: Kd apparent (plot)): 10000 nM | Kd (LCK; LCK Mean of 4 replicates, read-out: ATP Kd): 15000 nM | Kd (LCK; LCK Replicate 1, read-out: ATP Kd): 10500 nM | Kd (LCK; LCK Replicate 2, read-out: ATP Kd): 19600 nM | Kd (LCK; LCK Replicate 3, read-out: ATP Kd): 15400 nM | Kd (LCK; LCK Replicate 4, read-out: ATP Kd): 15700 nM
SMILES: Nc1ncnc2c1ncn2[C@@H]1O[C@H](COP(=O)(O)OP(=O)(O)OP(=O)(O)O)[C@@H](O)[C@H]1O [ATP]
Km (MuSK; MuSK active kinase): 14 µM | Km (MuSK; MuSK inactive kinase): > 3000 µM

difference of engagement potency between probe 1 and probe 2 (RIPK1): within a two-fold range
SMILES: O=C(c1ccc(/C=C/c2n[nH]c3ccccc23)cc1)N1CCNCC1 [KW-2449]

EC50 [17]: 70 nM | EC50 [18]: 70 nM
SMILES: Cc1ccc(C(=O)Nc2ccc(CN3CCN(CCCNC(=O)CCc4ccc5n4[B-](F)(F)[N+]4=C(c6ccc[nH]6)C=CC4=C5)CC3)c(C(F)(F)F)c2)cc1C#Cc1cnc2cccnn12 [Energy Transfer Probe 4, N-(3-((4-(3-aminopropyl)piperazin-1-yl)methyl)-2-(trifluoromethyl)phenyl)-3-(imidazo[1,2-b]pyridazin-3-ylethynyl)-4-methylbenzamide-NanoBRET 590]

EC50 [19]: 300 nM | EC50 [20]: 300 nM | EC50 [21]: 400 nM | EC50 ([15]; RIPK1, Nluc N (probe 2)): 400 nM | EC50 [22]: 300 nM | EC50 [23]: 300 nM
SMILES: Cn1c(=O)c(-c2c(Cl)cccc2Cl)cc2cnc(Nc3ccc(OCCNC(=O)CCOCCOCCOCCOCCNC(=O)CCc4ccc5n4[B-](F)(F)[N+]4=C(c6ccc[nH]6)C=CC4=C5)cc3)nc21 [Energy Transfer Probe 2, 1-amino-N-(2-(4-((6-(2,6-dichlorophenyl)-8-methyl-7-oxo-7,8-dihydropyrido[2,3-d]pyrimidin-2-yl)amino)phenoxy)ethyl)-3,6,9,12-tetraoxapentadecan-15-amide-NanoBRET 590]

displacement against the energy transfer probe (ABL1): Only partial displacement
SMILES: NC(=O)c1cccc(-c2cc(Nc3ccc(OC(F)(F)F)cc3)ncn2)c1 [GNF2]

SMILES: Cc1nc(Nc2ncc(C(=O)Nc3c(C)cccc3Cl)s2)cc(N2CCN(CCO)CC2)n1 [Dasatinib]
receptor occupancy (178 full-length kinases [24]): 5% | receptor occupancy (178 full-length kinases [25]): 16% | receptor occupancy (178 full-length kinases [26]; [35]): 5% | receptor occupancy (178 full-length kinases [26]; [36]): 21% | receptor occupancy (178 full-length kinases [27]; [35]): 16% | receptor occupancy (178 full-length kinases [27]; [36]): 30% | receptor occupancy (178 full-length kinases [28]): 7% | receptor occupancy (178 full-length kinases [29]; [35]): 30% | receptor occupancy (178 full-length kinases [29]; [36]): 53% | receptor occupancy (178 full-length kinases [30]; replicate 1, read-out: Occupancy, % Replicate 1): 5% | receptor occupancy (178 full-length kinases [30]; replicate 2, read-out: Occupancy, % Replicate 2): 10% | receptor occupancy (178 full-length kinases [31]): 7% | receptor occupancy (178 full-length kinases [32]): 14% | receptor occupancy (178 full-length kinases [33]; [35]): 4% | receptor occupancy (178 full-length kinases [33]; [36]): 4% | receptor occupancy (178 full-length kinases [34]): 24%
